{
  "source": "ChEMBL document CHEMBL1773045",
  "about": "“Conjugate (MTC-220) of muramyl dipeptide analogue and paclitaxel prevents both tumor growth and metastasis in mice” (J Med Chem, 2011)",
  "key": {"HOP-92": {"tested_on": "HOP-92", "experiment": "Growth inhibition of human HOP92 cells after 48 hrs by sulforhodamine B assay", "type": "functional", "conditions": "HOP-92, 48 h"}, "[1]": {"experiment": "Growth inhibition of human Hs 578T cells after 48 hrs by sulforhodamine B assay", "type": "functional"}, "T47D": {"tested_on": "T47D", "experiment": "Growth inhibition of human T47D cells after 48 hrs by sulforhodamine B assay", "type": "functional"}, "HCT-116": {"tested_on": "HCT-116", "experiment": "Growth inhibition of human HCT116 cells after 48 hrs by sulforhodamine B assay", "type": "functional", "conditions": "HCT-116, 48 h"}, "[2]": {"tested_on": "Lewis lung carcinoma cell line", "experiment": "Antitumor activity against mouse LLC cells xenografted in C57BL/6 mouse assessed as tumor growth inhibition at 10 mg/kg, ip qd for 15 days relative to control", "type": "functional", "conditions": "360 h, route intraperitoneal, read-out: GI"}, "SNB-19": {"tested_on": "SNB-19", "experiment": "Growth inhibition of human SNB19 cells after 48 hrs by sulforhodamine B assay", "type": "functional", "conditions": "SNB-19, 48 h"}, "SK-OV-3": {"tested_on": "SK-OV-3", "experiment": "Growth inhibition of human SKOV3 cells after 48 hrs by sulforhodamine B assay", "type": "functional", "conditions": "SK-OV-3, 48 h"}, "SN12C": {"tested_on": "SN12C", "experiment": "Growth inhibition of human SN12C cells after 48 hrs by sulforhodamine B assay", "type": "functional"}, "[3]": {"experiment": "Antitumor activity against human ES2 cells xenografted in nu/nu BALB/c mouse assessed as tumor growth inhibition at 30 mg/kg, ip qd for 12 days measured on day 21 relative to control", "type": "functional", "conditions": "ES-2, ip, route intraperitoneal, read-out: GI"}, "UACC-62": {"tested_on": "UACC-62", "experiment": "Growth inhibition of human UACC62 cells after 48 hrs by sulforhodamine B assay", "type": "functional", "conditions": "UACC-62, 48 h"}, "Mus musculus": {"tested_on": "Mus musculus", "experiment": "Toxicity in human cancer cells xenografted in nu/nu BALB/c mouse assessed as side effects at 5 to 30 mg/kg, ip qd for 24 days", "type": "organism-based, Cancer cell lines", "design": "dose 5-30 mg/kg, route intraperitoneal", "conditions": "in vivo, 576 h"}},
  "data": [
    {"smiles": "CC(=O)O[C@H]1C(=O)[C@@]2(C)[C@H]([C@H](OC(=O)c3ccccc3)[C@]3(O)C[C@H](OC(=O)[C@H](OC(=O)CCC(=O)NCCCC[C@H](NC(=O)CC[C@H](NC(=O)[C@H](C)NC(=O)/C=C/c4ccc(Cl)cc4)C(N)=O)C(N)=O)[C@H](NC(=O)c4ccccc4)c4ccccc4)C(C)=C1C3(C)C)[C@]1(OC(C)=O)CO[C@@H]1C[C@@H]2O", "values": [
      {"measurement": "GI50", "setting": "HOP-92", "value": "< 10", "unit": "nM"},
      {"measurement": "GI50", "setting": "[1]", "value": "< 10", "unit": "nM"},
      {"measurement": "GI50", "setting": "T47D", "value": "< 10", "unit": "nM"},
      {"measurement": "GI50", "setting": "HCT-116", "value": "< 10", "unit": "nM"},
      {"measurement": "inhibition in vivo at 10 mg/kg", "setting": "[2]", "value": 33.1, "unit": "%"},
      {"measurement": "GI50", "setting": "SNB-19", "value": "< 10", "unit": "nM"},
      {"measurement": "GI50", "setting": "SK-OV-3", "value": "< 10", "unit": "nM"},
      {"measurement": "GI50", "setting": "SN12C", "value": "< 10", "unit": "nM"},
      {"measurement": "inhibition in vivo at 30 mg/kg", "setting": "[3]", "value": 36.4, "unit": "%"},
      {"measurement": "GI50", "setting": "UACC-62", "value": "< 10", "unit": "nM"},
      {"measurement": "Activity", "setting": "Mus musculus", "value": "Non-toxic"}
    ]}
  ]
}
